Molecular target: L-aminoadipate-semialdehyde dehydrogenase-phosphopantetheinyl transferase (Homo sapiens) (UniProt Q9NRN7)
Assay: PubChem AID 378
Conditions: purified protein DSF, SYPRO orange Tm shift, at 10 µM, protein 2 µM, pH 5.5, active compounds read high
[1] = buffer 10 mM NaHPO4, with 150 mM NaCl, 2 mM MgCl2
[2] = buffer 10 mM NaH2PO4, NaCl 150 mM, MgCl2 2000 µM

L-aminoadipate-semialdehyde dehydrogenase-phosphopantetheinyl transferase (Homo sapiens), sequence (Q9NRN7 whole entry, looked up): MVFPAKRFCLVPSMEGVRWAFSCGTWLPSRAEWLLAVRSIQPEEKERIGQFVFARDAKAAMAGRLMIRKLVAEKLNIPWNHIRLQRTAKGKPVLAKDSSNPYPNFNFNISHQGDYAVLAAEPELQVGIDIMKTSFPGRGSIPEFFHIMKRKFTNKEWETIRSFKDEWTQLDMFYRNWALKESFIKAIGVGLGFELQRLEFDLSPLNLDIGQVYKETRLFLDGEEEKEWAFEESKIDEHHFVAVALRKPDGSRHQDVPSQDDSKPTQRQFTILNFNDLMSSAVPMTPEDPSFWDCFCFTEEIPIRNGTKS

| Tm shift [2] | Structure (SMILES) | Tm shift [1] |
| --- | --- | --- |
| – | O=[P+](O)C(O)(Cc1cccnc1)P(=O)(O)O (centres undefined) | 4.4 Celsius |
| 3.1 Celsius | CC(O)CC(=O)SCCNC(=O)CCNC(=O)C(O)C(C)(C)COP(=O)(O)OP(=O)(O)OCC1OC(n2cnc3c(N)ncnc32)C(O)C1OP(=O)(O)O (centres undefined) | – |
| 2.9 Celsius | CC(C)(COP(=O)(O)OP(=O)(O)OCC1OC(n2cnc3c(N)ncnc32)C(O)C1OP(=O)(O)O)C(O)C(=O)NCCC(=O)NCCS (centres undefined) | – |
| – | O=P(O)(O)C(O)(Cn1ccnc1)P(=O)(O)O | 5.2 Celsius |
